Source: patent publication US9670162B2, “Mitochondrial aldehyde dehyrogenase-2 modulators and methods of use thereof” (The Board of Trustees of the Leland Stanford Junior …, priority 2013, dated 2017)
Substitutions are numbered along the chain they refer to.

Key:
[1] = target: T1, human ALDH2 wild type (Homo sapiens, UniProt P05091); experiment: ALDH2 enzymatic assay (NADH at 340 nm), recombinant wild type enzyme; format: biochemical; set-up: key: −: no activation or inhibition; +: activation less than control 1; ++: activation similar to control 1, within 10%; +++: activation more than control 1 and less than control (compound 161); ++++: activation similar to compound 161, within 10%; conditions: activation relative to benchmarks control 1 and compound 161
T1 construct: His-tag (pTrcHis vector) (N); made in house; host or cells: E. coli BL21
T1 sequence (P05091 18-517): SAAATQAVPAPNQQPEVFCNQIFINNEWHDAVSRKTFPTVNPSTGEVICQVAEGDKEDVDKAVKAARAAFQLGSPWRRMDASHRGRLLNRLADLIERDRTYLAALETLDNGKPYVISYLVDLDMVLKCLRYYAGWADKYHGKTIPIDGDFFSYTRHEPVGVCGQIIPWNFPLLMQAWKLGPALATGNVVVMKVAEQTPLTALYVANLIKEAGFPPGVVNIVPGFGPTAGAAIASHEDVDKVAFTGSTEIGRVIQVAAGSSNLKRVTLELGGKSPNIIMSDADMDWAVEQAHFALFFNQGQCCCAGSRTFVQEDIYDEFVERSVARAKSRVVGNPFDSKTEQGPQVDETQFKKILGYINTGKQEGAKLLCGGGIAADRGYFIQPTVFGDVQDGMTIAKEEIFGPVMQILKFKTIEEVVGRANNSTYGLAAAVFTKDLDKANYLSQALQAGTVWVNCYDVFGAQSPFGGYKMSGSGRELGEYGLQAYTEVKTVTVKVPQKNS
From the text: (§1) ALDH2 catalyzes the oxidative reaction of substrate acetaldehyde to acetic acid using NAD^+ as a cofactor. Enzymatic activity, or catalytic rate, of aldehyde dehydrogenase (ALDH2) can be measured spectrophotometrically at UV wavelength λ340 nm by the accumulation of reduced product NADH derived from NAD^+. […] This method is well-established in the literature [e.g. D. K. Rex, W. F. Bosron, J. E. Smialek, T. K. Li, Alcohol Clin Exp Res 9, 147 (1985)].
(§2) Full-length wild type human ALDH2 cDNA was purchased from ATCC (No. MGC-1806. GenBank ID: BC002967). The 18-amino acid mitochondria transport signal sequence was removed by PCR and cloned into the NheI/HindIII sites of a His-tag vector, pTrcHis, using standard molecular cloning techniques. The human ALDH2* cDNA construct containing the Asian E487K mutation was obtained by site-directed mutagenesis to create the E487K substitution of the wild type ALDH2. Both human clones were designed to express a recombinant protein with the His-tag at the N-terminus of the protein. For the co-expression experiments of human ALDH2 wild type and ALDH2*2 heterotetramers, a wild type ALDH2 gene and a ALDH2 E487K gene were inserted separately into the two multiple cloning sites of pETDuet-1 vector. (Novagen, Calif., USA). All the vectors were transformed into BL21 E. coli host cells and subjected to 0.5 mM IPTG induction for protein expression at 30° C. Purifications of the recombinant proteins by affinity nickel columns (HisTrap, GE Healthy Science, USA) were carried out using standard protocols according to manufacturer's instructions (Novagen, USA).
(§3) Control 1 and compound 161 are used as benchmarks and the symbols have the following representation: […]

[2] = target: T2, human ALDH2*2 recombinant mutant enzyme (E487K) (Homo sapiens, UniProt P05091, E504K); experiment: ALDH2 enzymatic assay (NADH at 340 nm), recombinant mutant enzyme; format: biochemical; set-up: key: −: no activation or inhibition; +: activation less than control 1; ++: activation similar to control 1, within 10%; +++: activation more than control 1 and less than control (compound 161); ++++: activation similar to compound 161, within 10%; conditions: activation relative to benchmarks control 1 and compound 161
T2 construct: His-tag (pTrcHis vector) (N); made in house; host or cells: E. coli BL21
T2 sequence (P05091 18-517 E504K): T1 sequence (P05091 18-517) with E487K
From the text: as §1, §2, §3

Row | ALDH2 (wild-type) [1] | ALDH2 (mutant) [2] | SMILES
1 | + | + | COc1ccc(CNS(=O)(=O)c2c(Cl)cccc2OCC2CC2)cc1F [Compound 164]
2 | + | + | O=C(O)c1ccc(CNC(=O)c2c(Cl)cccc2Br)cc1 [Compound 127]
3 | +++ | +++ | COc1ccc(CNC(=O)c2c(Cl)ccnc2OCC2CCC2)cc1F [Compound 198]
4 | + | ++ | O=C(NCc1ccc(OC(F)(F)F)c(F)c1)c1c(Cl)ccnc1Cl [Compound 175]
5 | + | + | O=C(NCc1ccc(F)c(F)c1)c1c(Cl)ccnc1OCC1CC1 [Compound 180]
6 | +++ | +++ | COc1ccc(CNC(=O)c2c(Cl)cccc2NCC2CC2)cc1F [Compound 134]
7 | + | + | COc1ccc(CNC(=O)c2c(Cl)ccnc2OCC2CC2)cn1 [Compound 255]
8 | + | + | COc1cccc(CNC(=O)c2c(Cl)cccc2Cl)c1 [Compound 103]
9 | ++ | ++ | COc1ccc(CNC(=O)c2c(Cl)ccnc2OCC(C)C)cc1F [Compound 183]
10 | − | + | COc1ccc(CNC(=O)c2c(C)cccc2C)cc1F [Compound 119]
11 | − | + | CC(C)Oc1ccc(CNC(=O)c2c(Cl)ccnc2NCC2CC2)cc1F [Compound 189]
12 | + | + | O=C(NCc1ccc2occc2c1)c1c(Cl)ccnc1OCC1CC1 [Compound 257]
13 | + | ++ | COc1ncc(CNC(=O)c2c(Cl)ccnc2OCC2CC2)cc1F [Compound 246]
14 | ++ | ++ | CCOc1nccc(Cl)c1C(=O)NCc1ccc(OC)c(F)c1 [Compound 193]
15 | + | ++ | COc1c(F)cc(CNC(=O)c2c(Cl)ccnc2Cl)cc1F [Compound 173]
16 | ++ | + | O=C(NCc1ccc2c(c1)CCCO2)c1c(Cl)ccnc1OCC1CC1 [Compound 244]
17 | ++ | ++ | CCC(CC)Oc1nccc(Cl)c1C(=O)NCc1ccc(OC)c(F)c1 [Compound 201]
18 | + | ++ | COc1ccc(CNC(=O)c2c(Cl)cccc2Oc2ccccc2)cc1F [Compound 110]
19 | ++ | ++ | COc1ccc(CNC(=O)c2c(Cl)cccc2Cl)cc1F [Compound 102]
20 | + | + | COc1ccc(CNC(=O)c2c(C)cccc2Br)cc1F [Compound 125]
21 | ++ | ++ | COc1ccc(CNC(=O)c2c(Cl)ccnc2Cl)cc1F [Compound 157]
22 | ++ | ++ | COc1ccc(CNC(=O)c2c(Cl)ccnc2OCC(C)(C)C)cc1F [Compound 203]
23 | + | + | CS(=O)(=O)c1ccc(CNc2cccc(Cl)c2C(=O)NCc2ccc3c(c2)OCO3)cc1 [Compound 118]
24 | ++ | ++ | COc1ccc(CNC(=O)c2c(Cl)cccc2Oc2cccc(Cl)c2)cc1F [Compound 136]
25 | ++ | ++ | COc1ccc(CNC(=O)c2c(Cl)ccnc2NCC2CC2)cc1F [Compound 160]

Row | ALDH2 (wild-type) [1] | ALDH2 (mutant) [2] | SMILES
26 | − | − | COc1cc(CNC(=O)c2c(Cl)ccnc2Cl)ccc1F [Compound 171]
27 | + | ++ | COc1ccc(CNC(=O)c2c(Cl)cccc2OCCC(C)C)cc1F [Compound 122]
28 | ++ | ++ | COc1ccc(CNC(=O)c2c(Cl)ccnc2OC2CCCC2)cc1F [Compound 199]
29 | + | ++ | COc1ccc(CNC(=O)c2c(C)ccnc2OCC2CC2)cc1F [Compound 231]
30 | ++++ | +++ | CCCSc1nccc(Cl)c1C(=O)NCc1ccc(OC)c(F)c1 [Compound 215]
31 | − | + | O=S(=O)(NCc1ccc(F)c(F)c1)c1c(Cl)cccc1Cl [Compound 156]
32 | + | + | COc1ccc(CNC(=O)c2c(C)ccnc2OCC2CCNC2)cc1F (centres unmarked) [Compound 237]
33 | ++ | +++ | COc1ccc(CNC(=O)c2c(Cl)cccc2OC2CCCC2)cc1F [Compound 146]
34 | ++ | +++ | COc1ccc(CNC(=O)c2c(Cl)cccc2OCC2CCCC2)cc1F [Compound 145]
35 | ++ | +++ | COc1ccc(CNC(=O)c2c(Cl)cncc2OCC2CC2)cc1F [Compound 239]
36 | + | + | O=C(NCc1ccc2c(c1)OCO2)c1c(Cl)cccc1NC1CCCNC1 (centres unmarked) [Compound 133]
37 | + | + | CCCS(=O)(=O)c1nccc(Cl)c1C(=O)NCc1ccc(OC)c(F)c1 [Compound 221]
38 | ++ | + | COc1ccc(CNC(=O)c2c(Cl)ccnc2Oc2ccccc2)cc1F [Compound 206]
39 | + | + | COc1ccc(CNC(=O)c2ccc(Br)cc2C)cc1F [Compound 124]
40 | + | + | COc1ccc(CNC(=O)c2c(C(F)(F)F)ccnc2OCC(C)C)cc1F [Compound 226]
41 | + | + | COc1ccc(CNC(=O)c2c(Cl)ccnc2CCC(C)C)cc1F [Compound 250]
42 | + | +++ | CCCOc1nccc(Cl)c1C(=O)NCc1ccc(OC)c(F)c1 [Compound 194]
43 | + | +++ | O=C(NCc1ccc2c(c1)CCO2)c1c(Cl)ccnc1OCC1CC1 [Compound 245]
44 | ++ | +++ | COc1ccc(CNC(=O)c2c(OCC3CC3)ccnc2Cl)cc1F [Compound 170]
45 | +++ | +++ | COc1ccc(CNC(=O)c2c(Cl)cccc2OCC2CCC2)cc1F [Compound 144]
46 | + | + | COc1ccc(CNC(=O)c2c(Cl)ccnc2SCC(C)C)cc1F [Compound 218]
47 | ++++ | ++++ | COc1ccc(CNC(=O)c2c(Cl)cccc2OCC(C)C)cc1F [Compound 149]
48 | + | ++ | COc1ccc(CNC(=O)c2c(Cl)ccnc2OCCN(C)C)cc1F [Compound 184]
49 | + | + | COc1ccc(CNC(=O)c2c(Cl)ccnc2S(=O)(=O)C(C)C)cc1F [Compound 222]
